Results on one compound are retold here after PMC3744530, “CTA095, a Novel Etk and Src Dual Inhibitor, Induces Apoptosis in Prostate Cancer Cells and Overcomes Resistance to Src Inhibitors” (PLoS ONE, 2013).

The subject of data set [1] is STAT3 phosphorylation in PC3 cells. Description: Western blot of STAT3 phosphorylation. Format: cell-based, human. Conditions: 24 h. On the procedure: (§1) Western blotting was performed as described previously. Proteins were detected using the following antibodies: β-actin (Sigma-Aldrich, Saint Louis, MO), Etk (Santa Cruz Inc., Santa Cruz, CA), pEtk; Src, pSrc; Stat3, pStat3. For phospho-Etk, cells were pre-treated with 100 μM pervanadate for 15 min before harvest.
(§2) Figure 4 Inhibition of cell signaling in PC3 cells following treatment with CTA095. Cells were grown in 10 mm plate to 50% confluence and treated with CTA095. Cells were harvested after 24 h. pEtk, Etk, pSrc, Src, pStat3, Stat3, pAkt and Akt levels were measured using the corresponding antibodies by Western blot. One of three similar experiments depicted.
(Immunoblotting shows a protein as a band on a membrane.)

In data set [2] the test system is PC3 cells. Description: Flow cytometry: PI staining and Annexin V-FITC apoptosis. The format is cell-based, human. As to conditions: PC3, 24 h. On the procedure:
PC3 cells were treated with 0.1% DMSO (control) and CTA095 at the indicated concentrations for 24 h. Cell cycle arrest was determined by the incorporation of propidium iodide (Sigma-Aldrich) into permeabilized cells. Cells undergoing apoptosis were identified using an Annexin V-FITC kit (Abcam), following the manufacturer's instructions. The cells were analyzed using a Coulter Epics XL flow cytometer (Beckman Coulter, Miami, FL).
Figure 7 Induction of apoptosis of PC3 cells following treatment with CTA095. PC3 cells were seeded at 10^6 cells/ml (2 ml) in a 6-well plate overnight and then treated with CTA095 at the indicated concentrations for 24 h. Cell cycle arrest was analyzed using PI staining (A). Apoptosis was analyzed using Annexin-V FITC apoptosis detection kit (B). Caspase 9 activation was measured using western blot (D). For caspase 3/7 activity, PC3 cells were seeded at 5000 cells/well in 96 well plate overnight and treated with CTA095 at 0–10 μM for 24 h. Caspase-3/7 activities were measured using the Apo-ONE Homogeneous Caspase-3/7 Assay kit (Promega, Madison, WI) according to the manufacturer's instruction. Columns, mean; bars, standard deviation, n = 3. […] TEXT PRINTED IN THE PICTURE: (A) CTA095: 4.3% (0 μM); 6.9% (5 μM); 44.0% (10 μM) DOUBTS OF THE COPYIST ABOUT THIS PICTURE: Panel A prints no substance label. […]
(A flow cytometer gives signals particle by particle.)

Data set [3] addresses T1, Etk (Homo sapiens, UniProt P51813).
T1 construct: purchased Millipore Inc (Dundee, UK)
T1 sequence (P51813 1-675): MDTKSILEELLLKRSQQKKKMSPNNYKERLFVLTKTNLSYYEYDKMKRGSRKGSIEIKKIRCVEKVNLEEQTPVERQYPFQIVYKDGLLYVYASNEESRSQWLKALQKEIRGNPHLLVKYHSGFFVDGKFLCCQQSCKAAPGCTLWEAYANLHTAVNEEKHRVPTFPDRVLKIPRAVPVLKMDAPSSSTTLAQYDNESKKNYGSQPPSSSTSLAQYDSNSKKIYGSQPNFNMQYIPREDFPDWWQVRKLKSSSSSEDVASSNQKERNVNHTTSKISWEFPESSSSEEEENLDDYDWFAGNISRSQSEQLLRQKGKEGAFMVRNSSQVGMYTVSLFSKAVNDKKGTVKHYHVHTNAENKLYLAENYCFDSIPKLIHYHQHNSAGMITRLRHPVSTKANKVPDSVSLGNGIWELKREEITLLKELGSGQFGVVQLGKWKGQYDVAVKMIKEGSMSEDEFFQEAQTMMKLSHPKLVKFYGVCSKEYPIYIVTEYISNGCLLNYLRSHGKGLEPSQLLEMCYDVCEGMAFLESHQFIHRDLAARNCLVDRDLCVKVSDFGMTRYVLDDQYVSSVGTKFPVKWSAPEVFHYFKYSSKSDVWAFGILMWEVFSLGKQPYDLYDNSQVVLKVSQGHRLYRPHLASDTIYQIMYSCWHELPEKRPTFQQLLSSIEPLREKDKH
Put plainly: Etk autophosphorylation assay (in vitro kinase assay). Conditions: purified Etk, 33P-ATP, 30 min. Format: biochemical. On the procedure:
Etk autophosphorylation activity was measured by an in vitro kinase assay. Briefly, purified Etk (100 ng) was mixed with CTA095 in the kinase assay buffer (20 mM Hepes pH 7.55, 10 mM MgCl2, 10 mM MnCl2, 1 mM DTT, 500 μM Na3VO4). The cold ATP (5 µM) and hot r-^33P-ATP (5 µCi) were added to the mixture and the kinase reaction was performed at 30°C for 30 min. The reactions were terminated with a 4X SDS-PAGE sample buffer, and then loaded onto an 8% SDS-polyacrylamide gel for electrophoresis. The gel was vacuum dried and the ETK auto kinase activity was analyzed with a phosphoimager (Biorad).
The Btk family of non-receptor tyrosine kinases is characterized by the presence of an autophosphorylation site within the non-catalytic Src homology 3 (SH3) domain. Thus, it was also important to determine the ability of CTA095 to inhibit Etk autophosphorylation. Therefore, an in vitro Etk autophosphorylation assay was established in which purified Etk was mixed with CTA095 in the presence of ^33P-ATP. After 30 min, the reaction was terminated, and the samples were loaded onto an SDS-polyacrylamide gel for electrophoresis. After drying, the gel was analyzed with a phosphoimager.

Data set [4] in a line: Solubility in water. The format is physicochemical.
For data set [5], the system named is Etk phosphorylation in PC3-Etk cells. Put plainly: Western blot of Etk phosphorylation in intact cells. Conditions: 5 μM and 10 μM, 24 h. Format: cell-based, human. As for the experimental part:
as §1, §2

For data set [6], the system named is PC3 cells. Put plainly: MTT growth inhibition assay. Format: cell-based, human. As for the experimental part: Cells were seeded in 96-well plates and cultured overnight, followed by treatment with 0.1% DMSO, as the vehicle control, and CTA095, at the indicated concentrations for 72 h. Growth inhibition was measured using a 3-(4,5-Dimethylthiazol-2-yl)-2,5-diphenyltetrazolium bromide (MTT) assay (Roche Diagnostic, Mannheim, Germany).
Figure 5 Growth Inhibition of CTA095 to LNCAP, CWR22Rv1, PC3 prostate cancer and normal prostate (RWPE1) cells. Cells were seeded at 5,000 cells/well in 96-well plate overnight and treated with CTA095 at the indicated concentrations. The cell viability was measured using MTT assay after 72 h. dots, mean; bars, standard deviation, n = 3.
Figure 9 CTA095 as a chemo sensitizer. Growth Inhibition of CTA095 and in combination with 10 μM chloroquine (CQ), or 2 ng/ml paclitaxel (PTX) to PC3 human prostate cancer cells. Cells were seeded at 5,000 cells/well in 96-well plate overnight and pretreated with the corresponding co-treatments for 1h, then treated with 2.5 μM CTA095. The cell viability was measured using MTT assay after 72 h. Columns, mean; bars, standard deviation, n = 3.
Background: Formazan colour is commonly taken as a measure of viable cells.

For the compound `O=c1[nH]c2cc3nc(-c4ccc5oc6ccccc6c5c4)n(CCCN4CCCCC4)c3cc2nc1-c1ccccc1` [CTA095, 2-(dibenzo[b,d]furan-2-yl)-7-phenyl-1-(3-(piperidin-1-yl)propyl)-1H-imidazo[4,5-g]quinoxalin-6(5H)-one], in data set [1], the STAT3 phosphorylation entry is “also inhibited”. Further, the “apoptosis (Annexin-V reactivity)” value in data set [2] is recorded as “dose-dependent increase of apoptosis”. In data set [3], the Etk autophosphorylation entry is “inhibit Etk autophosphorylation in a concentration dependent manner”. The solubility in water entry in data set [4] is “highly insoluble in water”. Further, in data set [5], the Etk phosphorylation result is recorded as “significantly inhibited”. Also, the IC50 (commonly the concentration that inhibits the measured activity by half) in data set [6] (Homo sapiens, PC-3, PC3, MTT, 72 h) amounted to 4.5 µM. Further, the “growth inhibition in combination with chloroquine (CQ)” value in data set [6] (PC3, 2.5 μM CTA095 + CQ 10 μM, MTT, 72 h) was “synergistic effect”. Further, the “growth inhibition in combination with paclitaxel (PTX)” value in data set [6] (PC3, 2.5 μM CTA095 + PTX 2 ng/ml, MTT, 72 h) is on record as “synergistic effect”. For the same compound, in data set [6] (prostate cancer cells, co-treatment with rapamycin (RPM)), the “combination with autophagy inducer RPM” value is “synergizes”.
